According to ChEMBL document CHEMBL3046014, “Quinolone derivatives as antitubercular drugs” (Med Chem Res, 2013):
Values after ≈ are worked out from the molar mass of the structure shown.

Key:
Mycobacterium avium = assay: Antitubercular activity against Mycobacterium avium by MAC assay; assay type: functional
[1] = test system: Mycobacterium tuberculosis; assay: Antitubercular activity against Mycobacterium tuberculosis; assay type: functional, organism-based
[2] = test system: Mycobacterium tuberculosis; assay: Antitubercular activity against Mycobacterium tuberculosis CSU93
[3] = Drug uptake in Mus musculus (mouse) serum at 100 mg/kg, po at 0.25 hr; assay type: ADME, organism-based; parameters: dose 100 mg/kg, route oral; settings: read-out: Drug uptake
[4] = Elimination half life in healthy Homo sapiens (human); assay type: ADME, organism-based; settings: in vivo, read-out: beta t1/2 (converted)
[5] = Oral bioavailability in healthy Homo sapiens (human); assay type: ADME, organism-based; settings: in vivo
[6] = test system: Mycobacterium tuberculosis; assay: Antitubercular activity against Mycobacterium tuberculosis H37Rv; assay type: functional
Homo sapiens = species: Homo sapiens; assay: Toxicity in healthy Homo sapiens (human); assay type: organism-based; settings: in vivo

Row | SMILES | IC50 [1] [µg/mL] | MIC90 [1] [µg/mL] | other results
1 | OC(C1=CCC=CN1)c1cc(C2C3CC4CC(C3)CC2C4)nc2c1ccc1ccccc12 (stereo not drawn) | – | – | MIC50 (Mycobacterium avium): 2 µg/mL (≈ 4.73 µM)
2 | O=C(O)c1cn(C2CC2)c2cc(N3CCNCC3)c(F)cc2c1=O [CIPROFLOXACIN] | 0.5 (≈ 1.51 µM) | – | –
3 | COc1c(N2C[C@@H]3CCCN[C@@H]3C2)c(F)cc2c(=O)c(C(=O)O)cn(C3CC3)c12 [MOXIFLOXACIN] | – | – | MIC [2]: 0.25 µg/mL (≈ 0.623 µM); concentration at 0.25 h [3]: 7800 ng/mL
4 | N[C@@H]1CN(c2c(F)cc3c(=O)c(C(=O)O)cn([C@@H]4C[C@@H]4F)c3c2Cl)CC12CC2 [SITAFLOXACIN ANHYDROUS] | – | 0.2 (≈ 0.488 µM) | half-life [4]: 4.4 h; bioavailability [5]: ≥ 70%
5 | C[C@H]1COc2c(N3CCN(C)CC3)c(F)cc3c(=O)c(C(=O)O)cn1c23.C[C@H]1COc2c(N3CCN(C)CC3)c(F)cc3c(=O)c(C(=O)O)cn1c23.O [LEVOFLOXACIN] | – | 1 | –
6 | OC(c1cc(C(F)(F)F)nc2c(C(F)(F)F)cccc12)C1CCCCN1 (stereo not drawn) [MEFLOQUINE] | – | – | MIC50 (Mycobacterium avium): 16 µg/mL (≈ 42.3 µM)
7 | N[C@@H]1[C@H]2CN(c3nc4c(cc3F)c(=O)c(C(=O)O)cn4-c3ccc(F)cc3F)C[C@@H]12 [TROVAFLOXACIN] | – | 1 (≈ 2.4 µM) | –
8 | CC1COc2c(N3CCN(C)CC3)c(F)cc3c(=O)c(C(=O)O)cn1c23 (racemic) [OFLOXACIN] | 0.5 (≈ 1.38 µM) | – | –
9 | COc1nc2ccc(Br)cc2cc1[C@@H](c1ccccc1)[C@@](O)(CCN(C)C)c1cccc2ccccc12 [BEDAQUILINE] | – | – | MIC [6]: < 0.5 µg/mL
10 | CCn1cc(C(=O)O)c(=O)c2cc(F)c(N3CCNCC3)cc21 [NORFLOXACIN] | 8 (≈ 25.1 µM) | – | –
11 | CO/N=C1\CN(c2nc3c(cc2F)c(=O)c(C(=O)O)cn3C2CC2)CC1CN (stereo not drawn) [GEMIFLOXACIN] | – | 8 (≈ 20.5 µM) | MNTD (Homo sapiens): 800 mg; half-life [4]: 7.4 h; bioavailability [5]: 70%
12 | OC(C1=CCC=CN1)c1cc(-c2ccc(Cl)cc2)nc2c1ccc1ccccc12 (stereo not drawn) | – | – | MIC50 (Mycobacterium avium): 1 µg/mL (≈ 2.51 µM)
13 | C[C@H]1CN(c2c(F)cc3c(=O)c(C(=O)O)cn(C4CC4)c3c2OC(F)(F)F)CCN1.Cl | 0.25 | – | –
14 | C[C@@H]1CN(c2c(F)c(N)c3c(=O)c(C(=O)O)cn(C4CC4)c3c2F)C[C@H](C)N1 [SPARFLOXACIN] | 0.25 (≈ 0.637 µM) | – | –
15 | Cc1c(F)c(N2CCNC(C)C2)cc2c1c(=O)c(C(=O)O)cn2C1CC1 (stereo not drawn) [GREPAFLOXACIN] | – | 1 (≈ 2.78 µM) | –
16 | C[C@H]1NCc2cc(-c3ccc4c(=O)c(C(=O)O)cn(C5CC5)c4c3OC(F)F)ccc21 [GARENOXACIN] | – | 0.0625 (≈ 0.147 µM) | –
17 | CNC1CCCN(c2c(F)cc3c(=O)c(C(=O)O)cn(C4CC4)c3c2OC)C1 (stereo not drawn) [BALOFLOXACIN] | 0.5 (≈ 1.28 µM) | – | –
